{"source": "patent US20070129344A1", "about": "“Bicyclic 6-alkylidene-penem beta-lactamase inhibitors and beta-lactam antibiotic combination: a broad spectrum antibiotic” (priority 2005, published 2007)", "assay_type_in_all_cases": "cell-based", "key": {"[1]": {"tested_on": "K. pneumoniae GC 7635 SHV-1, KPC2", "experiment": "MIC microbroth dilution; β-lactamase class A, A (Cb'ase)", "conditions": "Klebsiella pneumoniae, Cefepime + 4 ug/ml Compound 2, read-out: MIC", "protocol": "(§1) The in vitro activities of the antibiotics were determined by the microbroth dilution method as recommended by the National Committee for Clinical Laboratory Standards (NCCLS). (NCCLS. 2000. Methods for Dilution Antimicrobial Susceptibility Tests for Bacteria That Grow Aerobically; Approved Standards: M7-A5, vol. 19. National Committee for Clinical Laboratory Standards, Villanova, Pa.). Mueller-Hinton II broth (MHBII)(BBL Cockeysville, Md.), was used for the testing procedure. […]. The plates were incubated for 18-22 hours at 35° C. in ambient air."}, "[2]": {"tested_on": "A. baumannii GC 7684 AmpC, AmpC", "experiment": "MIC microbroth dilution; β-lactamase class C", "conditions": "Acinetobacter baumannii, Cefepime + 4 ug/ml Compound 2, read-out: MIC", "protocol": "as §1"}, "[3]": {"tested_on": "A. baumannii GC 7687 AmpC", "experiment": "MIC microbroth dilution; β-lactamase class C", "conditions": "Acinetobacter baumannii, GC7687AMPC, Cefepime + 4 ug/ml Compound 2, read-out: MIC", "protocol": "as §1"}, "[4]": {"tested_on": "C. freundii GC 4164 Inducible AmpC", "experiment": "MIC microbroth dilution; β-lactamase class C", "conditions": "Citrobacter freundii, Cefepime + 4 ug/ml Compound 2, read-out: MIC", "protocol": "as §1"}, "[5]": {"tested_on": "E. aerogenes 1697-MP GC 7845 AmpC", "experiment": "MIC microbroth dilution; β-lactamase class C", "conditions": "Klebsiella aerogenes; E. aerogenes GC 7845; Cefepime + 4 ug/ml Compound 2; read-out: MIC", "protocol": "as §1"}, "[6]": {"tested_on": "E. cloacae GC 1475 (P99)", "experiment": "MIC microbroth dilution; β-lactamase class C", "conditions": "Enterobacter cloacae, Cefepime + 4 ug/ml Compound 2, read-out: MIC", "protocol": "as §1"}, "[7]": {"tested_on": "E. cloacae GC 1477 (AmpC)", "experiment": "MIC microbroth dilution; β-lactamase class C", "conditions": "Enterobacter cloacae, Cefepime + 4 ug/ml Compound 2, read-out: MIC", "protocol": "as §1"}, "[8]": {"tested_on": "E. cloacae GC 1712 AmpC-inducible", "experiment": "MIC microbroth dilution; β-lactamase class C", "conditions": "Enterobacter cloacae, Cefepime + 4 ug/ml Compound 2, read-out: MIC", "protocol": "as §1"}, "[9]": {"tested_on": "E. cloacae GC 4142 (AmpC)", "experiment": "MIC microbroth dilution; β-lactamase class C", "conditions": "Enterobacter cloacae, Cefepime + 4 ug/ml Compound 2, read-out: MIC", "protocol": "as §1"}, "[10]": {"tested_on": "E. cloacae GC 6991 (AmpC)", "experiment": "MIC microbroth dilution; β-lactamase class C", "conditions": "Enterobacter cloacae, Cefepime + 4 ug/ml Compound 2, read-out: MIC", "protocol": "as §1"}, "[11]": {"tested_on": "E. cloacae PT 1494 Inducible AmpC", "experiment": "MIC microbroth dilution; β-lactamase class C", "conditions": "Enterobacter cloacae, Cefepime + 4 ug/ml Compound 2, read-out: MIC", "protocol": "as §1"}, "[12]": {"tested_on": "E. cloacae PT 967 Inducible AmpC", "experiment": "MIC microbroth dilution; β-lactamase class C", "conditions": "Enterobacter cloacae, Cefepime + 4 ug/ml Compound 2, read-out: MIC", "protocol": "as §1"}, "[13]": {"tested_on": "E. coli GC 2894 (AmpC)", "experiment": "MIC microbroth dilution; β-lactamase class C", "conditions": "Escherichia coli, Cefepime + 4 ug/ml Compound 2, read-out: MIC", "protocol": "as §1"}, "[14]": {"tested_on": "E. coli GC 6539 CMY-2", "experiment": "MIC microbroth dilution; β-lactamase class C", "conditions": "Escherichia coli, GC6539CMY2, Cefepime + 4 ug/ml Compound 2, read-out: MIC", "protocol": "as §1"}, "[15]": {"tested_on": "K. pneumoniae GC 7820 Act 1", "experiment": "MIC microbroth dilution; β-lactamase class C", "conditions": "Klebsiella pneumoniae, GC7820ACT1, K. pneumoniae GC 7820; Cefepime + 4 ug/ml Compound 2; read-out: MIC", "protocol": "as §1"}, "[16]": {"tested_on": "K. pneumoniae GC 7821 DHA 1", "experiment": "MIC microbroth dilution; β-lactamase class C", "conditions": "Klebsiella pneumoniae, GC7821DHA1, K. pneumoniae GC 7821; Cefepime + 4 ug/ml Compound 2; read-out: MIC", "protocol": "as §1"}, "[17]": {"tested_on": "K. pneumoniae GC 7822 Act 1", "experiment": "MIC microbroth dilution; β-lactamase class C", "conditions": "Klebsiella pneumoniae, GC7822ACT1, Cefepime + 4 ug/ml Compound 2, read-out: MIC", "protocol": "as §1"}, "[18]": {"tested_on": "K. pneumoniae GC 7823 Fox 5", "experiment": "MIC microbroth dilution; β-lactamase class C", "conditions": "Klebsiella pneumoniae, GC7823FOX5, K. pneumoniae GC 7823; Cefepime + 4 ug/ml Compound 2; read-out: MIC", "protocol": "as §1"}, "[19]": {"tested_on": "K. pneumoniae GC 7824 Fox 5", "experiment": "MIC microbroth dilution; β-lactamase class C", "conditions": "Klebsiella pneumoniae, GC7824FOX5, Cefepime + 4 ug/ml Compound 2, read-out: MIC", "protocol": "as §1"}, "[20]": {"tested_on": "P. aeruginosa ATCC 27853 AmpC-inducable", "experiment": "MIC microbroth dilution; β-lactamase class C", "conditions": "Pseudomonas aeruginosa, ATCC27853, Cefepime + 4 ug/ml Compound 2, read-out: MIC", "protocol": "as §1"}, "[21]": {"tested_on": "P. aeruginosa GC 1763 AmpC-inducible", "experiment": "MIC microbroth dilution; β-lactamase class C", "conditions": "Pseudomonas aeruginosa, Cefepime + 4 ug/ml Compound 2, read-out: MIC", "protocol": "as §1"}, "[22]": {"tested_on": "P. aeruginosa GC 1764 (AmpC)", "experiment": "MIC microbroth dilution; β-lactamase class C", "conditions": "Pseudomonas aeruginosa, Cefepime + 4 ug/ml Compound 2, read-out: MIC", "protocol": "as §1"}, "[23]": {"tested_on": "P. aeruginosa GC 3153 Inducible AmpC", "experiment": "MIC microbroth dilution; β-lactamase class C", "conditions": "Pseudomonas aeruginosa, Cefepime + 4 ug/ml Compound 2, read-out: MIC", "protocol": "as §1"}, "[24]": {"tested_on": "S. marcescens GC 4132 (AmpC)", "experiment": "MIC microbroth dilution; β-lactamase class C", "conditions": "Serratia marcescens, Cefepime + 4 ug/ml Compound 2, read-out: MIC", "protocol": "as §1"}, "[25]": {"tested_on": "S. marcescens GC 4145 Inducible AmpC", "experiment": "MIC microbroth dilution; β-lactamase class C", "conditions": "Serratia marcescens, Cefepime + 4 ug/ml Compound 2, read-out: MIC", "protocol": "as §1"}, "[26]": {"tested_on": "S. marcescens PT 696 Inducible AmpC", "experiment": "MIC microbroth dilution; β-lactamase class C", "conditions": "Serratia marcescens, Cefepime + 4 ug/ml Compound 2, read-out: MIC", "protocol": "as §1"}, "[27]": {"tested_on": "E. aerogenes GC 7036 TEM-24, Amp C inducable", "experiment": "MIC microbroth dilution; β-lactamase class A (ESBL), C", "conditions": "Klebsiella aerogenes, Cefepime + 4 ug/ml Compound 2, read-out: MIC", "protocol": "as §1"}, "[28]": {"tested_on": "E. aerogenes GC 7039 TEM-4, Amp C inducable", "experiment": "MIC microbroth dilution; β-lactamase class A (ESBL), C", "conditions": "Klebsiella aerogenes, Cefepime + 4 ug/ml Compound 2, read-out: MIC", "protocol": "as §1"}, "[29]": {"tested_on": "E. cloacae GC 7052 SHV-5, Amp C inducable", "experiment": "MIC microbroth dilution; β-lactamase class A (ESBL), C", "conditions": "Enterobacter cloacae, Cefepime + 4 ug/ml Compound 2, read-out: MIC", "protocol": "as §1"}, "[30]": {"tested_on": "E. cloacae GC 7065 TEM-26, SHV-12 Amp C inducable", "experiment": "MIC microbroth dilution; β-lactamase class A (ESBL), C", "conditions": "Enterobacter cloacae, Cefepime + 4 ug/ml Compound 2, read-out: MIC", "protocol": "as §1"}, "[31]": {"tested_on": "M. morganii GC 1617 TEM-10 + inducible AmpC", "experiment": "MIC microbroth dilution; β-lactamase class A (ESBL), C", "conditions": "Morganella morganii, Cefepime + 4 ug/ml Compound 2, read-out: MIC", "protocol": "as §1"}, "[32]": {"tested_on": "S. marcescens GC 1781 (Sme-1 + AmpC)", "experiment": "MIC microbroth dilution; β-lactamase class A (Cb'ase), C", "conditions": "Serratia marcescens, Cefepime + 4 ug/ml Compound 2, read-out: MIC", "protocol": "as §1"}, "[33]": {"tested_on": "E. coli GC 1480 OXA-1", "experiment": "MIC microbroth dilution; β-lactamase class D", "conditions": "Escherichia coli, GC1480OXA1, E. coli GC 1480; Cefepime + 4 ug/ml Compound 2; read-out: MIC", "protocol": "as §1"}, "[34]": {"tested_on": "E. coli GC 1807 OXA-7", "experiment": "MIC microbroth dilution; β-lactamase class D", "conditions": "Escherichia coli, GC1807OXA7, E. coli GC 1807; Cefepime + 4 ug/ml Compound 2; read-out: MIC", "protocol": "as §1"}, "[35]": {"tested_on": "E. coli GAR 5929 TEM, OXA, Act-1, CTX (By PCR only)", "experiment": "MIC microbroth dilution; β-lactamase class A, C, D", "conditions": "Escherichia coli, Cefepime + 4 ug/ml Compound 2, read-out: MIC", "protocol": "as §1"}}, "note": "Where a name gives a salt, the structure may show the parent alone."}
{"smiles": "O=C(O)C1=CS[C@@H]2/C(=C\\c3cn4c(n3)COCC4)C(=O)N12", "note": "[Compound 2, (5R), (6Z)-6-(5,6-Dihydro-8H-imidazo[2.1-c][1,4]oxazin-2-ylmethylene)-7-oxo-4-thia-1-azabicyclo[3.2.0]hept-2-ene-2-carboxylic Acid, Sodium Salt]", "values": [{"measurement": "MIC", "setting": "[1]", "value": 4, "unit": "µg/mL"}, {"measurement": "MIC", "setting": "[2]", "value": 8, "unit": "µg/mL"}, {"measurement": "MIC", "setting": "[3]", "value": 16, "unit": "µg/mL"}, {"measurement": "MIC", "setting": "[4]", "value": 0.12, "unit": "µg/mL"}, {"measurement": "MIC", "setting": "[5]", "value": 0.03, "unit": "µg/mL"}, {"measurement": "MIC", "setting": "[6]", "value": 0.12, "unit": "µg/mL"}, {"measurement": "MIC", "setting": "[7]", "value": 0.25, "unit": "µg/mL"}, {"measurement": "MIC", "setting": "[8]", "value": 0.12, "unit": "µg/mL"}, {"measurement": "MIC", "setting": "[9]", "value": 0.12, "unit": "µg/mL"}, {"measurement": "MIC", "setting": "[10]", "value": 0.5, "unit": "µg/mL"}, {"measurement": "MIC", "setting": "[11]", "value": 0.06, "unit": "µg/mL"}, {"measurement": "MIC", "setting": "[12]", "value": 0.12, "unit": "µg/mL"}, {"measurement": "MIC", "setting": "[13]", "value": 0.06, "unit": "µg/mL"}, {"measurement": "MIC", "setting": "[14]", "value": 0.06, "unit": "µg/mL"}, {"measurement": "MIC", "setting": "[15]", "value": 0.25, "unit": "µg/mL"}, {"measurement": "MIC", "setting": "[16]", "value": 0.03, "unit": "µg/mL"}, {"measurement": "MIC", "setting": "[17]", "value": 0.5, "unit": "µg/mL"}, {"measurement": "MIC", "setting": "[18]", "value": 0.12, "unit": "µg/mL"}, {"measurement": "MIC", "setting": "[19]", "value": 0.25, "unit": "µg/mL"}, {"measurement": "MIC", "setting": "[20]", "value": 2, "unit": "µg/mL"}, {"measurement": "MIC", "setting": "[21]", "value": 2, "unit": "µg/mL"}, {"measurement": "MIC", "setting": "[22]", "value": 1, "unit": "µg/mL"}, {"measurement": "MIC", "setting": "[23]", "value": 8, "unit": "µg/mL"}, {"measurement": "MIC", "setting": "[24]", "value": 0.12, "unit": "µg/mL"}, {"measurement": "MIC", "setting": "[25]", "value": 0.25, "unit": "µg/mL"}, {"measurement": "MIC", "setting": "[26]", "value": 0.06, "unit": "µg/mL"}, {"measurement": "MIC", "setting": "[27]", "value": 0.06, "unit": "µg/mL"}, {"measurement": "MIC", "setting": "[28]", "value": 0.06, "unit": "µg/mL"}, {"measurement": "MIC", "setting": "[29]", "value": 1, "unit": "µg/mL"}, {"measurement": "MIC", "setting": "[30]", "value": 0.06, "unit": "µg/mL"}, {"measurement": "MIC", "setting": "[31]", "value": 0.12, "unit": "µg/mL"}, {"measurement": "MIC", "setting": "[32]", "value": 0.06, "unit": "µg/mL"}, {"measurement": "MIC", "setting": "[33]", "value": 0.06, "unit": "µg/mL"}, {"measurement": "MIC", "setting": "[34]", "value": 0.03, "unit": "µg/mL"}, {"measurement": "MIC", "setting": "[35]", "value": 0.12, "unit": "µg/mL"}]}
